Reference: ChEMBL document CHEMBL1149616, “Antiproliferative, low-calcemic, fluorinated sulfone analogs of 1alpha,25-dihydroxyvitamin D3: chemical synthesis and biological evaluation” (Bioorg Med Chem, 2007)
Activity calls are given as the source filed them. The calls are words filed in the database; no cut-off is given here.

What was measured:
Keratinocyte [1] = assay: Antiproliferative activity against mouse keratinocytes at 3 to 7 nM; assay type: functional, cell-based
Keratinocyte [2] = assay: Antiproliferative activity against mouse keratinocytes at 7 nM; assay type: functional, cell-based

C=C1/C(=C\C=C2/CCC[C@]3(C)[C@@H]([C@@H](C)OCCCS(=O)(=O)C(F)(F)F)CC[C@@H]23)C[C@@H](O)C[C@@H]1O
Activity (Keratinocyte [1]): Active

C=C1/C(=C\C=C2/CCC[C@]3(C)C([C@H](C)CCCS(=O)(=O)C(F)(F)F)=CC[C@@H]23)C[C@@H](O)C[C@@H]1O
Activity (Keratinocyte [2]): Active
